Laboratory results reported in ChEMBL document CHEMBL1201862, “PubChem BioAssay data set” (2004).
The source made the active and inactive calls.

Assays:
[1] = alpha-synuclein stem-loop luciferase translation blockers – H4 neuroglioma cells, luminescence, confirmation (AID 1988); format: functional, cell-based
[2] = test system: Streptococcus sp. 'group A'; assay: Streptococcus pyogenes SK(-)GAS viability under kanamycin – luminescence, BacTiterGlo, confirmation, counter-screen for streptokinase expression inhibitor project, dose response (AID 1900); format: functional, organism-based
Streptococcus = assay: GAS UMAA2166 growth inhibition – luminescence, BacTiterGlo, counter-screen for streptokinase expression inhibitor project, dose response (AID 1915); format: functional, organism-based;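 further: potency for reduction of bacterial viability or growth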
[3] = HepG2 cell cytotoxicity, dose response, cytotoxicity control for non-replicating M. tuberculosis project (AID 489018); format: functional; details: Mycobacterium tuberculosis
[4] = luciferase reporter signal suppression in cells – H4 neuroglioma cells, luminescence, dose response (AID 1990); format: functional, cell-based
[5] = target: Heat shock protein HSP 90-alpha (Homo sapiens, UniProt P07900); format: functional, organism-based
[6] = Luminescence Cell-Based Dose Response HTS to Identify Inhibitors of 5'UTR Stem-Loop Driven Prion Protein mRNA Translation in H4 Neuroglioblastoma Cells. [Related pubchem assays: 1827 (Project Summary), 1813 (Primary HTS)]; format: functional
cells = format: functional
[7] = Vero E6 cell cytotoxicity, dose response, cytotoxicity control for non-replicating M. tuberculosis project, secondary assay (AID 492998); format: functional, VeroE6; details: Vero C1008
[8] = THP-1 cell cytotoxicity, dose response, cytotoxicity control for non-replicating M. tuberculosis project (AID 489025); format: functional
H9c2 = assay: cells; format: functional, cell-based; details: Rattus norvegicus, H9c2, Myocardium;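 further: confirmatory concentration-response retest of ultra-high-throughput screening hits for modulation of myocardial damage; cell death induced by hydrogen peroxide oxidative stress; compound pretreatment for 60 min then peroxide exposure for 2 h; potency is for protecting the cells against peroxide damage rather than for killing them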
Streptokinase A = target: T1, Streptokinase A (Streptococcus pyogenes serotype M1, UniProt P10520); assay: viability-normalized secreted streptokinase activity reduction – plasminogen activation absorbance, OD405, dose response (AID 1914); format: functional, Streptococcus pyogenes M1 GAS;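 further: secreted streptokinase activity via plasminogen activation per viability signal from cell pellet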
T1 sequence (P10520 whole entry): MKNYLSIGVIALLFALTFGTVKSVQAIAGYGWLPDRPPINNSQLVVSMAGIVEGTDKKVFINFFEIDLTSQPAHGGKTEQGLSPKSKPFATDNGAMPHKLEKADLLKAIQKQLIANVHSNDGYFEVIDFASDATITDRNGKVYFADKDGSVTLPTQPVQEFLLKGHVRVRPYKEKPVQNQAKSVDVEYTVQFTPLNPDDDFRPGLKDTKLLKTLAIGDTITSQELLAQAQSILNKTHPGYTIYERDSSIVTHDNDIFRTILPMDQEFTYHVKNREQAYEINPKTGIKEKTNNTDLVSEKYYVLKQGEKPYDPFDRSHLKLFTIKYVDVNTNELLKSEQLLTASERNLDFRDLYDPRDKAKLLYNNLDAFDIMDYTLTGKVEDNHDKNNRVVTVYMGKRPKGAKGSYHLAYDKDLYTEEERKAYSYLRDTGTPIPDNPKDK

[9] = target: Eukaryotic translation initiation factor 4H (Homo sapiens, UniProt Q15056); assay: inhibitors of translation initiation factor eIF4H – SAR follow-up (AID 435011); format: functional
[10] = target: Polyadenylate-binding protein 1 (Homo sapiens, UniProt P11940); assay: PABP inhibition in translation initiation, SAR follow-up (AID 435018); format: functional
Sequence of Polyadenylate-binding protein 1 (P11940 whole entry): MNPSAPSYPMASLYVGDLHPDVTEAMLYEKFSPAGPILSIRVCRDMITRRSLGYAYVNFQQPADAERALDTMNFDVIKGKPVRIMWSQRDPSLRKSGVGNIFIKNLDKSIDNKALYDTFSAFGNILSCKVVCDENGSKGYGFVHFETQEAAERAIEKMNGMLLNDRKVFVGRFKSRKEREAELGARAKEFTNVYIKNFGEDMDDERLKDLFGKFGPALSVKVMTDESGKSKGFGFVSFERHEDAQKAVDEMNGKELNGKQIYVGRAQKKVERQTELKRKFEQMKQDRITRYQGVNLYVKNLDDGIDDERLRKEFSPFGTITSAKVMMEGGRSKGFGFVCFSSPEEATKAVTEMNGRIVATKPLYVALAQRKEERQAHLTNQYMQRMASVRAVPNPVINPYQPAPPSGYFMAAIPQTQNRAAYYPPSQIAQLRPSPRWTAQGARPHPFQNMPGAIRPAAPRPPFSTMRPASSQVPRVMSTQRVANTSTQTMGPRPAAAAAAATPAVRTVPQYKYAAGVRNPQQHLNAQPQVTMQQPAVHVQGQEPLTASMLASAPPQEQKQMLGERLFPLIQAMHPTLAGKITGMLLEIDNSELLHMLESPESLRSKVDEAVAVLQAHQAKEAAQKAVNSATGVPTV

SMILES	EC50 [1]	EC50 [2]	EC50 (Streptococcus)	CC50 [3]	EC50 [4]	AC50 [5]	EC50 [6]	IC50 (cells)	CC50 [7]	CC50 [8]	IC50 (H9c2)	EC50 (Streptokinase A)	IC50 [9]	IC50 [10]
CC(C)Cn1c(=O)c(C(=O)Nc2ccncc2)c(O)c2ccccc21	10.9 µM (active)	5.54 µM (active)	7.31 µM (active)	19.1 µM (active)	> 120 µM (not active)	6.7 µM (active)	> 120 µM (not active)	16.9 µM (active)	16.5 µM (active)	12.4 µM (active)	–	–	–	–
O=C(Nc1nnc(-c2ccco2)o1)c1ccc([N+](=O)[O-])s1	–	–	–	> 20 µM (active)	–	–	–	9.81 µM (active)	11.6 µM (active)	17.4 µM (active)	–	–	–	–
CCCn1c(NC(=O)c2ccccc2)nc2ccccc21	–	2.56 µM (active)	> 150 µM (not active)	> 20 µM (active)	–	–	–	1.75 µM (active)	> 20 µM (active)	35.9 µM (active)	> 79 µM (inactive)	> 150 µM (not active)	–	–
O=C(COc1ccc(C=NNC(=O)c2ccc(O)cc2)cc1)Nc1ccc([N+](=O)[O-])cc1	–	–	–	–	–	–	–	–	–	–	–	–	5.8 µM (active)	> 100 µM (inactive)
